Earlier results in patent US9056899B2 (priority 2008, dated 2015).
Values after ≈ are worked out from the molar mass of the structure shown. Read-outs that look alike come from different tables or passages of the source.

Legend:
Details in all cases: cited from earlier work
[1] = test system: BW25113 and gene knockouts
[2] = test system: BW25113 and gene knockouts; remark: listed apart in the source
[3] = test system: BW25113 and gene knockouts; remark: listed apart in the source

CC1(C)S[C@@H]2[C@H](NC(=O)[C@H](N)c3ccccc3)C(=O)N2[C@H]1C(=O)O [Ampicillin]
MIC E test ([1]; BW25113 starting strain): 5.0 µg/mL (≈ 14.3 µM)
MIC E test [1]: 1.5 µg/mL (≈ 4.29 µM)
MIC E test ([1]; dacA knockout): 1.5 µg/mL (≈ 4.29 µM)
MIC E test ([1]; dapF knockout): 2.0 µg/mL (≈ 5.72 µM)
MIC E test ([1]; pal knockout): 2.0 µg/mL (≈ 5.72 µM)
MIC E test ([1]; rplA knockout): 2.0 µg/mL (≈ 5.72 µM)
MIC E test ([1]; tatC knockout): 3.0 µg/mL (≈ 8.59 µM)
MIC E test ([1]; tolC knockout): 1.0 µg/mL (≈ 2.86 µM)
MIC Plating ([2]; BW25113 starting strain): 6.0 µg/mL (≈ 17.2 µM)
MIC Plating ([2]; JW5115 knockout): 2.0 µg/mL (≈ 5.72 µM)
MIC Plating ([2]; acrA knockout): 1.5 µg/mL (≈ 4.29 µM)
MIC Plating ([2]; acrB knockout): 2.0 µg/mL (≈ 5.72 µM)
MIC Plating ([2]; atpA knockout): 2.5 µg/mL (≈ 7.15 µM)
MIC Plating [2]: 1.5 µg/mL (≈ 4.29 µM)
MIC Plating ([2]; dacA knockout): 1.5 µg/mL (≈ 4.29 µM)
MIC Plating ([2]; dapF knockout): 1.0 µg/mL (≈ 2.86 µM)
MIC Plating ([2]; dcd knockout): 2.5 µg/mL (≈ 7.15 µM)
MIC Plating ([2]; ddlB knockout): 1.0 µg/mL (≈ 2.86 µM)
MIC Plating ([2]; dedD knockout): 2.0 µg/mL (≈ 5.72 µM)
MIC Plating ([2]; deoT knockout): 2.0 µg/mL (≈ 5.72 µM)
MIC Plating ([2]; dksA knockout): 2.0 µg/mL (≈ 5.72 µM)
MIC Plating ([2]; emtA knockout): 2.0 µg/mL (≈ 5.72 µM)
MIC Plating ([2]; envC knockout): 1.5 µg/mL (≈ 4.29 µM)
MIC Plating ([2]; fkpB knockout): 2.5 µg/mL (≈ 7.15 µM)
MIC Plating ([2]; gpmM knockout): 1.5 µg/mL (≈ 4.29 µM)
MIC Plating ([2]; hscA knockout): 2.0 µg/mL (≈ 5.72 µM)
MIC Plating ([2]; hscB knockout): 2.5 µg/mL (≈ 7.15 µM)
MIC Plating ([2]; lptB knockout): 2.0 µg/mL (≈ 5.72 µM)
MIC Plating ([2]; mrcB knockout): 2.0 µg/mL (≈ 5.72 µM)
MIC Plating ([2]; pal knockout): 1.5 µg/mL (≈ 4.29 µM)
MIC Plating ([2]; pgmB knockout): 1.5 µg/mL (≈ 4.29 µM)
MIC Plating ([2]; phoP knockout): 2.0 µg/mL (≈ 5.72 µM)
MIC Plating ([2]; qmcA knockout): 2.5 µg/mL (≈ 7.15 µM)
MIC Plating ([2]; rimK knockout): 2.0 µg/mL (≈ 5.72 µM)
MIC Plating ([2]; rplA knockout): 2.0 µg/mL (≈ 5.72 µM)
MIC Plating ([2]; rpmF knockout): 1.5 µg/mL (≈ 4.29 µM)
MIC Plating ([2]; rpsF knockout): 2.0 µg/mL (≈ 5.72 µM)
MIC Plating ([2]; rrmJ knockout): 1.5 µg/mL (≈ 4.29 µM)
MIC Plating ([2]; skp knockout): 2.0 µg/mL (≈ 5.72 µM)
MIC Plating ([2]; sufI knockout): 2.0 µg/mL (≈ 5.72 µM)
MIC Plating ([2]; surA knockout): 2.0 µg/mL (≈ 5.72 µM)
MIC Plating ([2]; tatC knockout): 2.0 µg/mL (≈ 5.72 µM)
MIC Plating ([2]; tolC knockout): 2.0 µg/mL (≈ 5.72 µM)
MIC Plating ([2]; tolR knockout): 2.0 µg/mL (≈ 5.72 µM)
MIC Plating ([2]; ubiG knockout): 2.0 µg/mL (≈ 5.72 µM)
MIC Plating ([2]; xapR knockout): 1.5 µg/mL (≈ 4.29 µM)
MIC Plating ([2]; ybeD knockout): 2.0 µg/mL (≈ 5.72 µM)
MIC Plating ([2]; ybeY knockout): 2.0 µg/mL (≈ 5.72 µM)
MIC Plating ([2]; ybgF knockout): 1.5 µg/mL (≈ 4.29 µM)
MIC Plating ([2]; ybhT knockout): 2.0 µg/mL (≈ 5.72 µM)
MIC Plating ([2]; yciM knockout): 1.5 µg/mL (≈ 4.29 µM)
MIC Plating ([2]; yfgC knockout): 1.5 µg/mL (≈ 4.29 µM)
MIC Plating ([2]; yfgL knockout): 2.0 µg/mL (≈ 5.72 µM)
MIC Plating ([2]; ygcO knockout): 2.0 µg/mL (≈ 5.72 µM)
MIC Plating ([2]; yjjY knockout): 1.5 µg/mL (≈ 4.29 µM)

gentamicin
MIC Plating ([3]; BW25113 starting strain): 0.8 µg/mL
MIC Plating ([3]; JW5360 knockout): >0.8 µg/mL
MIC Plating ([3]; dapF knockout): 0.7 µg/mL
MIC Plating ([3]; envC knockout): >0.5 µg/mL
MIC Plating ([3]; gpmM knockout): 0.7 µg/mL
MIC Plating ([3]; hflK knockout): 0.5 µg/mL
MIC Plating ([3]; rfaC knockout): 0.7 µg/mL
MIC Plating ([3]; rffA knockout): 0.7 µg/mL
MIC Plating ([3]; rnt knockout): 0.7 µg/mL
MIC Plating ([3]; rplI knockout): 0.7 µg/mL
MIC Plating ([3]; rpmE knockout): 0.6 µg/mL
MIC Plating ([3]; rpoN knockout): 0.5 µg/mL
MIC Plating ([3]; sapC knockout): 0.5 µg/mL
MIC Plating ([3]; secG knockout): 0.5 µg/mL
MIC Plating ([3]; tatC knockout): 0.5 µg/mL
MIC Plating ([3]; tolC knockout): 0.5 µg/mL
MIC Plating ([3]; tusC knockout): 0.5 µg/mL
MIC Plating ([3]; tusD knockout): 0.5 µg/mL
MIC Plating ([3]; xapR knockout): >0.5 µg/mL
MIC Plating ([3]; yciM knockout): >0.7 µg/mL
MIC Plating ([3]; yfgC knockout): >0.5 µg/mL
MIC Plating ([3]; yidD knockout): 0.5 µg/mL
